Test results published in US9624254B2, “Hydroxysafflor yellow pharmaceutical salts” (ZHEJIANG YONGNING PHARMACEUTICAL CO LTD, priority 2013, dated 2017).
“And” between values parts separate entries of the source, which are not always exact repeats. Identical values can stand only once. Like-named read-outs stand apart in the source and are kept apart here.

What was measured:
cerebral blood flow = type: in vivo, dog
Source text: 4. Effect on cerebral blood flow of dog: Beagles were used as the study animal. After the dog was anesthetized with sodium pentobarbital, external jugular vein, internal jugular vein and vertebral artery were isolated surgically. The external jugular vein was ligated. Flow probes were placed in internal jugular vein and vertebral artery. Two times of the total blood flow recorded by both probes represented blood supply of the whole brain. At the end of the study, the brain was removed and weighed to calculate blood flow per 100 g of brain tissue.

[1] = tested on: coronary ring from beagles (cardiac vascular ring); parameters: species or system dog
Source text: (§1) 1. Selectivity of isolated heart and cerebral vessel from dogs: During this study, Willis arteries and coronary ring from beagles were mounted on ex vivo vascular measuring device. Adjust the tension sensor, and add 10-6 mol/L phenylephrine into the liquid in bath cup, so as to maintain vascular tension. […] Calculate vasoconstriction or vasodilation change value.

[2] = tested on: Willis arteries from beagles (cerebral vascular ring); parameters: species or system dog
Source text: as §1

[3] = tested on: acute myocardial infarction among rats; assay: Rat acute myocardial infarction model (coronary ligature): arrhythmia ranking, infarcted area, myocardial enzymes; type: in vivo
Experimental: Test method • 1. Preparation of rat acute myocardial infarction model: Intraperitoneal anesthesia was performed with 3% sodium pentobarbital, 45 mg/kg. Right femoral artery and vein catheter were inserted for blood pressure monitoring and intravenous administration, respectively. Artificial mechanical ventilation was given through tracheal intubation at a rate of 60 times/min, and with a ventilation volume of about 10 ml/kg. Electrocardiogram (ECG) was recorded by placing needle electrode in limbs. A longitudinal skin incision was made approximately 0.5 cm to left sternal border, followed by blunt dissection of the subcutaneous tissue. The pectoralis major, pectoralis minor, and the intercostal muscle were dissected, ligated and cut with scissors successively. The chest was open from the fourth intercostal space along the left sternal border where apical beat is most significant. Cut the pericardium open with scissors, and clamp the pericardium to bilateral chest wall with hemostatic forceps, to form a pericardial bed and expose vessels on the surface of the left ventricle. 6-0 silk suture was threaded through superficial layer of myocardium (i.e. the anterior descending coronary artery) about 2 mm under the left auricle. […] Arrhythmia ranking: The severity of arrhythmia which occurred within 30 min after coronary ligature was scored. • 3. Myocardial enzyme test: At the end of test, 2 ml of venous blood was taken, and centrifuged under 4° C. and 4000/min for 5 min. The supernatant was taken for myocardial enzyme test. Test items: LDH, AKP, CK. • 4. Measurement of myocardial infarcted area: 4 h after coronary ligature, puncture was performed to the anterior wall of the left ventricle, and carbon ink was injected. Then the animal was sacrificed, and the heart was removed and cleaned with normal saline. Blood and non-myocardial tissue such as vessel and fat were removed. Moisture was dried with absorbent paper. Then the heart was weighed. The heart was cut into sections of about 2 mm from cardiac apex to the base of heart parallel. The perfusion area (perfused with ink) and area at high risk of ischemia (without ink perfusion). […] The nonobstructive heart muscle stained was cut off with scissors, and the non-stained infarcted heart muscle was weighed, to calculate percentage of infarcted heart muscle in the area of heart muscle at risk by weight (weight of infarction area/weight of area at risk*100%). Statistical Analysis:
All the test data was expressed as mean±standard deviation, statistical test was done with analysis of variance (ANOVA), and the difference was considered significant if P<0.05.

[4] = tested on: acute cerebral ischemia model (MCAO); type: in vivo, rat
[5] = tested on: platelet adhered to the silk; type: in vivo, rat
Experimental: (§2) 6. Anti-platelet aggregation: The study included two stages, instrument testing and in vivo test. […] 4 ml of blood was taken from heart 2 hours after the last dose. The blood was centrifuged under a low speed to obtain platelet-rich […]; and centrifuged under a high speed to obtain […] lacking platelet. Adenosine diphosphate (ADP) and platelet-activating factor (PAF) were chosen as the platelet aggregation inducing agent. And platelet aggregometer was used for testing. […] 2) In vivo method: An arteriovenous short was created with latex tubing in rats. There was surgical silk mounted in the latex tubing. Using characteristics of platelet adhesion, the short was opened to allow blood to flow trans-arteriovenously through the latex tubing. And then silk was removed and weighed. The weight of platelet adhered to the silk was calculated by subtracting the dry weight.

[6] = type: physicochemical; conditions: for Content: calculated as hydroxysafflor yellow A
blood viscosity = type: in vivo; conditions: rabbit
Experimental: 7. Effect on blood viscosity: Rabbit was treated intravenously, once per day, for 5 days. 2 hours after the last dose, blood was taken from heart and anticoagulated, and tested with blood rheometer directly.

acute hypoxia = assay: Acute cerebral anoxia, survival in a closed vessel; type: in vivo, mouse; conditions: Kunming mice
Experimental: 5. Effect on acute cerebral anoxia: A study was carried out using Kunming mice […]. The animals were kept in an environment lacking oxygen. The survival duration was recorded to examine whether resistance to acute hypoxia was increased after animals given the medicine. […] Animals were kept in the container until respiration ceased.

[7] = tested on: permeability of cerebral vessel; type: in vivo, rat
Experimental: 3. Effect on vasopermeability in rats: Rats were injected intravenously, once per day, for 7 days. After the last dose, rats were anesthetized, injected intravenously with Evans blue 50 mg/kg. After 5 minutes, bilateral common carotid arteries were ligated. The animals were sacrificed by decapitation after 3 hours. The brain was removed, weighed and immersed in formamide solution. It was placed in an incubator at 45° C. for 72 h. During this period, Evans blue in the cerebral vessel could be leached out into formamide solution. Testing the amount of Evans blue leached out into the formamide solution with spectrophotometer could indicate permeability of cerebral vessel.

[8] = tested on: platelet aggregation induced by PAF; assay: Anti-platelet aggregation, instrument testing (platelet aggregometer), PAF; type: in vivo; conditions: rabbit, intravenous once per day for 5 days, blood 2 hours after last dose, three doses
Experimental: as §2

[9] = tested on: platelet aggregation induced by ADP; assay: Anti-platelet aggregation, instrument testing (platelet aggregometer), ADP; type: in vivo; conditions: rabbit, intravenous once per day for 5 days, blood 2 hours after last dose, three doses
Experimental: as §2

[10] = beagles, intravenous, medium and high dose
[11] = 10-6 mol/L phenylephrine tension, 10 mg/ml added every 5 min, 4-5 times
[12] = serum, rats, 40 mg/kg intravenously, end of test

Compound: O=C(/C=C/c1ccc(O)cc1)C1=C(O)C(O)(C2OC(CO)C(O)C(O)C2O)C([O][Ca][O]C2=C(C3OC(CO)C(O)C(O)C3O)C(=O)C(C(=O)/C=C/c3ccc(O)cc3)=C(O)C2(O)C2OC(CO)C(O)C(O)C2O)=C(C2OC(CO)C(O)C(O)C2O)C1=O (centres unmarked) [Calcium hydroxysafflor yellow A]
- Cerebral blood flow (in words) (cerebral blood flow; dog, in vivo, iv): significantly increase blood flow
- Time for which blood flow was maintained (cerebral blood flow; dog, in vivo, iv): about 15 min
- Dilation on cardiac vascular ring [1]: 37.1%
- Dilation on cerebral vascular ring [2]: 69.7%
- Extent of myocardial infarction compared to hydroxysafflor yellow for injection (in words) ([3]; rat, in vivo): better efficacy in terms of reducing the extent of myocardial infarction
- Effect on serum LDH and CK (in words) ([3]; rat, in vivo, iv): more significant efficacy
- Effect on severity of arrhythmia (in words) ([3]; rat, in vivo, iv): more effective
- AKP (IU/L) ([3]; rat, in vivo, iv, 40 mg/kg): 152 ± 24 IU/L
- Arrhythmia ranking ([3]; rat, in vivo, iv, 40 mg/kg): 1.46 ± 0.3
- CK (IU/L) ([3]; rat, in vivo, iv, 40 mg/kg): 2139 ± 594 IU/L
- Infarction area ([3]; rat, in vivo, iv, 40 mg/kg): 0.11 ± 0.04 g
- Infarction rate (%) ([3]; rat, in vivo, iv, 40 mg/kg): 29 ± 6 %
- LDH (IU/L) ([3]; rat, in vivo, iv, 40 mg/kg): 463 ± 65 IU/L
- Area of cerebral infarction ([4]; rat, in vivo, iv): 41.3% and 25.7% and 21.6%
- Weight of platelet adhered on the silk ([5]; rat, in vivo): 13.9 ± 1.54 mg and 10.26 ± 1.15 mg and 8.73 ± 1.79 mg
- Total purity ([6]; Accelerated 0 month): 1.2%
- Total purity ([6]; Accelerated 1 month): 1.4%
- Content ([6]; Accelerated 1 month): 95.6%
- Total purity ([6]; Accelerated 2 months): 1.9%
- Content ([6]; Accelerated 2 months): 95.1%
- Total purity ([6]; Accelerated 3 months): 2.6%
- Content ([6]; Accelerated 3 months): 94.5%
- Blood viscosity effect compared with nimodipine positive control (in words) (blood viscosity; in vivo): superior to the positive control group
- Blood viscosity, low shear, medium shear and high shear (in words) (blood viscosity; in vivo, iv): decreased as dose increased
- Survival duration (acute hypoxia; high dose): 37 min
- Survival duration (acute hypoxia; low dose): 35 min
- Survival duration (acute hypoxia; medium dose): 38 min
- Evans blue leached out from cerebral vessel (in words) ([7]; rat, in vivo, iv): very significant effect of reducing Evans blue being leached out from cerebral vessel

Compound: O=C(/C=C/c1ccc(O)cc1)C1=C(O)C(O)(C2OC(CO)C(O)C(O)C2O)C([O][Mg][O]C2=C(C3OC(CO)C(O)C(O)C3O)C(=O)C(C(=O)/C=C/c3ccc(O)cc3)=C(O)C2(O)C2OC(CO)C(O)C(O)C2O)=C(C2OC(CO)C(O)C(O)C2O)C1=O (centres unmarked) [Magnesium hydroxysafflor yellow A]
- Total purity ([6]; Accelerated 0 month): 1.0%
- Content ([6]; Accelerated 0 month): 97.4%
- Total purity ([6]; Accelerated 1 month): 1.3%
- Content ([6]; Accelerated 1 month): 97.0%
- Total purity ([6]; Accelerated 2 months): 1.8%
- Content ([6]; Accelerated 2 months): 96.4%
- Total purity ([6]; Accelerated 3 months): 2.4%
- Content ([6]; Accelerated 3 months): 95.8%

Compound: COCCOC(=O)C1=C(C)NC(C)=C(C(=O)OC(C)C)C1c1cccc([N+](=O)[O-])c1 (centres unmarked) [nimodipine, reference compound]
- Area of cerebral infarction ([4]; SD rats, positive group, 24 h after MCAO): 15.7%

Compound: Potassium hydroxysafflor yellow A
- Cerebral blood flow (in words) (cerebral blood flow; [10]): significantly increase blood flow
- Time for which blood flow was maintained (cerebral blood flow; [10]): about 15 min
- Dilation on cardiac vascular ring [1, 11]: 31.6%
- Dilation on cerebral vascular ring [2, 11]: 73.1%
- Extent of myocardial infarction compared to hydroxysafflor yellow for injection (in words) ([3]; rats): better efficacy in terms of reducing the extent of myocardial infarction
- Infarction area ([3]; rats, 40 mg/kg intravenously, 4 h after coronary ligature, NBT staining, mean±SD): 0.10 ± 0.02 g
- Infarction rate (%) ([3]; rats, 40 mg/kg intravenously, weight of infarction area/weight of area at risk*100%): 26 ± 9 %
- Arrhythmia ranking ([3]; rats, 40 mg/kg intravenously, within 30 min after coronary ligature, mean±SD, n=8): 1.38 ± 0.5
- Effect on serum LDH and CK (in words) ([3]; rats, given intravenously): more significant efficacy
- Effect on severity of arrhythmia (in words) ([3]; rats, given intravenously, after coronary ligature): more effective
- AKP (IU/L) [3, 12]: 144 ± 19 IU/L
- CK (IU/L) [3, 12]: 2203 ± 530 IU/L
- LDH (IU/L) [3, 12]: 451 ± 78 IU/L
- Area of cerebral infarction ([4]; rat, in vivo, iv): 38.2% and 27.6% and 21.9%
- Weight of platelet adhered on the silk ([5]; rats, arteriovenous short, high dose): 8.91 ± 1.34 mg
- Weight of platelet adhered on the silk ([5]; rats, arteriovenous short, low dose): 13.6 ± 1.89 mg
- Weight of platelet adhered on the silk ([5]; rats, arteriovenous short, medium dose): 9.90 ± 1.53 mg
- Blood viscosity effect compared with nimodipine positive control (in words) (blood viscosity; high dose groups): superior to the positive control group
- Blood viscosity, low shear, medium shear and high shear (in words) (blood viscosity; intravenous once per day for 5 days, compared to solvent control group): decreased as dose increased
- Effect against platelet aggregation induced by PAF (in words) [8]: very good anti-platelet aggregation effect
- Survival duration (acute hypoxia; high dose): 36 min
- Survival duration (acute hypoxia; low dose): 36 min
- Survival duration (acute hypoxia; medium dose): 37 min
- Effect against platelet aggregation induced by ADP (in words) [9]: very good anti-platelet aggregation effect
- Evans blue leached out from cerebral vessel (in words) ([7]; rats, intravenous once per day for 7 days, high and medium dose groups): very significant effect of reducing Evans blue being leached out from cerebral vessel
